Reference: US4883863A, “Tripeptide derivatives and antiplasmin agents containing the same” (Nitto Boseki Co., Ltd., priority 1987, dated 1989)
Structures can show the parent of a compound that is named as a salt. Where a SMILES comes first, the peptide text is derived from it. [ ]: non-standard residue; d: D form. The star is where a group is joined. Tos = Cc1ccc(S(=O)(=O)*)cc1; Moc = COC(=O)*; For = O=C*

How the values were obtained:
Type in all cases: biochemical
thrombin = target: T1, thrombin (Homo sapiens, UniProt P00734); test: Thrombin-inhibiting activity, synthetic substrate PS-915; conditions: Table 4; PS-915, pH 8.5, 37° C.
T1 construct: purchased Sankyo (Color Test ATIII kit)
Text: (§1) Synthetic substrates used for testing the inhibitory activity of the inhibitors on decomposition of substrates by the enzymes were as follows. For plasmin, PS-994 (H--D--Lys(Tos)--Phe--Lys--CHA·2HCl, mfd. by NITTO BOSEKI Co., Ltd.) was used; for thrombin and trypsin, PS-915 (H--D--Phe--Pro--Arg--CHA·2HCl, mfd. by NITTO BOSEKI Co., Ltd.); for Factor Xa, PS-2000 (Z--D--Lys--(HCO)--Gly--Arg--CHA·HCl, mfd. by NITTO BOSEKI Co., Ltd.); and for kallikrein, S-2302 (H--D--Pro--Phe--Arg--pNA, mfd., by Kabi Co., Ltd.).
(§2) As plasmin, standard plasmin of Sankyo Color Test α2 -D1 Kit was used in an amount of 0.3CU/ml. As thrombin, that of Sankyo Color Test ATIII kit was used in an amount of 1.2 NIHU/ml. As trypsin, that of cord 3703 of Worthington was used in an amount of 2 μg/ml. As human Factor Xa, that of Boehringer Manheim Co., Ltd. was used in an amount of 0.25 U/ml. As human plasma kallikrein, that of Kabi Co., Ltd. was used in an amount of 0.12 U/ml. As terminating color reagents, those for Sankyo Color Test Kit were used. The reactions were carried out at 37° C. unless otherwise specified.
Each of aqueous solutions (0.1 ml) of the inhibitors which solutions were various in their respective concentrations was added to 0.4 ml of a buffer solution (a 150 mM aqueous sodium chloride solution containing 150 mM Tris, pH 8.5), and the resulting solution was heated for 5 minutes. To this solution was added 0.2 ml of thrombin solution, followed by incubation for 5 minutes. Then, 0.1 ml of a PS-915 solution (10 mM) was added, followed by incubation for 5 minutes. Thereafter, 2 ml of terminating color reagent was added. After standing for 10 minutes, absorbance at 700 nm was measured, and IC50 was determined in the manner described above.

trypsin = target: T2, trypsin (Bos taurus, UniProt P00760); test: Trypsin-inhibiting activity, synthetic substrate PS-915; conditions: Table 4; PS-915, pH 8.0, 37° C.
T2 construct: purchased Worthington 3703
T2 sequence (P00760 24-246): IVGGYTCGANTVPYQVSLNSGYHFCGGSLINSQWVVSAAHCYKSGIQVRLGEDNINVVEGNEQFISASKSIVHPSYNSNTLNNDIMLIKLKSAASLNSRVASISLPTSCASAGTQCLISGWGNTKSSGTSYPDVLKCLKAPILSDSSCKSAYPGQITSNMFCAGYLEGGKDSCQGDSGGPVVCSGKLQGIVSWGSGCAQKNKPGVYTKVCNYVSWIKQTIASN
Text: as §1, §2
Each of aqueous solutions (0.1 ml) of the inhibitors which solutions were various in their respective concentrations was added to 0.5 ml of a buffer solution (a 150 mM aqueous sodium chloride solution containing 150 mM Tris, pH 8.0), and the resulting solution was heated for 5 minutes. Then, 0.1 ml of a trypsin solution was added, followed by incubation for 5 minutes. Subsequently, 0.1 ml of a PS-915 solution (10 mM) was added, followed by incubation for 5 minutes. Thereafter, 2 ml of terminating color reagent [containing […] of soybean trypsin inhibitor (No. T-9003, available from Sigma Chemical Co.)] was added. After standing for 10 minutes, absorbance at 700 nm was measured and IC50 was determined in the manner described above.

human plasma kallikrein = target: T3, human plasma kallikrein (Homo sapiens, UniProt P03952); test: Kallikrein-inhibiting activity, synthetic substrate S-2302; conditions: Table 4; S-2302, pH 8.0, 37° C.
T3 construct: purchased Kabi Co., Ltd
Text: as §1, §2
Each of aqueous solutions (0.1 ml) of the inhibitors which solutions were various in their respective concentrations was added to 0.4 ml of a buffer solution (a 150 mM aqueous sodium chloride solution containing 50 mM Tris, pH 8.0), and the resulting mixture was heated for 5 minutes. Then, 0.1 ml of a kallikrein solution [containing 0.5% bovine serum albumin (No. A8022 available from Sigma Chemical Co.)] was added, followed by incubation for 5 minutes. Subsequently, a 10 mM S-2302 aqueous solution (0.1 ml) was added. The reaction was terminated by addition of a 20% aqueous acetic acid solution. Absorbance at 405 nm was measured and IC50 was measured in the manner described above.

T3 sequence (P03952 391-638 limits assumed): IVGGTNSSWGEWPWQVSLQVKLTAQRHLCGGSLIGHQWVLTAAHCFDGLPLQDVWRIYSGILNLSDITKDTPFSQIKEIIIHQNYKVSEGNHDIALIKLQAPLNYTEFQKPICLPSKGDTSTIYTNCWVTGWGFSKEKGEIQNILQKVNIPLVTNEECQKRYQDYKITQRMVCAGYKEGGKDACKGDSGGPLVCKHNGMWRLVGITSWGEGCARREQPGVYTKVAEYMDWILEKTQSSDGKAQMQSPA
T3 sequence (P03952 20-390 partner limits assumed): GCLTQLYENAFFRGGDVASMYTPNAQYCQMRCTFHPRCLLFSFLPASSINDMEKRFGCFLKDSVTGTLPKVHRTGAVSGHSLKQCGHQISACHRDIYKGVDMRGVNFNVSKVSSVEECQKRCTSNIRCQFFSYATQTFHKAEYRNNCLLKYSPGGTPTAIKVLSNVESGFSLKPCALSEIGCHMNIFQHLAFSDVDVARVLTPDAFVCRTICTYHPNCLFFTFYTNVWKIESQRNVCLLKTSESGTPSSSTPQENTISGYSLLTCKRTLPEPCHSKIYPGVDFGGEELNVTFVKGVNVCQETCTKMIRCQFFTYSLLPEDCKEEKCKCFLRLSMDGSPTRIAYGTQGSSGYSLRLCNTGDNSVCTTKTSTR

SMILES	IC50 (thrombin) [mM]	IC50 (trypsin) [µM]	IC50 (human plasma kallikrein) [nM]
COC(=O)N[C@H](CCCCNS(=O)(=O)c1ccc(C)cc1)C(=O)N[C@@H](Cc1ccccc1)C(=O)N[C@H](C=O)CCCCN [Compound 2, N-α-Methoxycarbonyl-N-ε-(p-tosyl)-D-lysyl-L-phenylalanyl-L-lysinal hydrochloride] (Moc-[dK](Tos)-Phe-Lys-aldehyde)	> 1	2.5	360
Cc1ccc(S(=O)(=O)NCCCC[C@@H](NC=O)C(=O)N[C@@H](Cc2ccccc2)C(=O)N[C@H](C=O)CCCCN)cc1 [Compound 4, N-α-Formyl-N-ε-(p-tosyl)-D-lysyl-L-phenylalanyl-L-lysinal hydrochloride] (For-[dK](Tos)-Phe-Lys-aldehyde)	> 1	7.8	1000
